What all share (assay): cryo-EM structure
Common to all, as to type: binding

One experiment concerns the target T1, Lhca1‐Lhca4 (Arabidopsis thaliana, UniProt P27521+Q01667).
T1 construct: heterodimer within native PSI-LHCI supercomplex purified from leaves; ligand at the subunit interface
T1 sequence (Q01667 36-241): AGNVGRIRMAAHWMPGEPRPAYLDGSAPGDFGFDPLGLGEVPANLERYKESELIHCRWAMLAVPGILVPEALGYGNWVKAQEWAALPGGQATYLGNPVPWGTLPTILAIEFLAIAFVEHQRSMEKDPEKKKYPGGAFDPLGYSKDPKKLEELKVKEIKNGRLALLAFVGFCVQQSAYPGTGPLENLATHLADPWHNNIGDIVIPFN
T1 sequence (P27521 53-251): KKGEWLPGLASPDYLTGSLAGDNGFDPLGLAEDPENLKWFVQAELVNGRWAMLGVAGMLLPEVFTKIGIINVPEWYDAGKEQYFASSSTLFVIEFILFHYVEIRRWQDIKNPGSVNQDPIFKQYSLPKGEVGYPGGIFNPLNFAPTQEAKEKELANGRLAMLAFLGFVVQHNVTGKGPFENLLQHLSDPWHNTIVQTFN
Conditions: PSI-LHCI supercomplex, 3.13 A; Lhca1/Lhca4 interface near Chl a615, hydrogen bond to Lhca1 Ser210.

Another experiment addresses T2, Lhca2 (Arabidopsis thaliana, UniProt Q9SYW8).
T2 construct: native LHCI antenna subunit within PSI-LHCI supercomplex purified from leaves (beta-DM, sucrose gradient)
T2 sequence (Q9SYW8 44-257): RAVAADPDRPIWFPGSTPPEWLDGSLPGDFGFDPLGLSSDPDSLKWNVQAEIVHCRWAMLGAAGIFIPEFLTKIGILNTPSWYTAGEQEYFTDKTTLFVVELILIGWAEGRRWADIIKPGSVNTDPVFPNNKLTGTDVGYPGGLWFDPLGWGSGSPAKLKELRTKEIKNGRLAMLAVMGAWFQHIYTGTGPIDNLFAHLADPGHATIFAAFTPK
Conditions: PSI-LHCI supercomplex, 3.13 A; site L2.

The target in a further experiment is T3, Lhca1 (Arabidopsis thaliana, UniProt Q01667).
T3 construct: native LHCI antenna subunit within PSI-LHCI supercomplex purified from leaves (beta-DM, sucrose gradient)
T3 sequence (Q01667 36-241): T1 sequence (Q01667 36-241)
Conditions: PSI-LHCI supercomplex, 3.13 A; site L2.

Two compounds from article PMC12589708, “Structural determinants for red‐shifted absorption in higher‐plants Photosystem I” (The New Phytologist, 2025) can be followed below.

For the compound `CC1=C[C@H](O)CC(C)(C)[C@H]1/C=C/C(C)=C/C=C/C(C)=C/C=C/C=C(C)/C=C/C=C(C)/C=C/C1=C(C)C[C@@H](O)CC1(C)C` [lutein], the cryo-EM structure result at Lhca1‐Lhca4 was “The Lut was situated at the interface between Lhca1 and Lhca4”. Regarding `CC(/C=C/C=C(C)/C=C/[C@@]12O[C@]1(C)C[C@@H](O)CC2(C)C)=C\C=C\C=C(C)\C=C\C=C(C)\C=C\[C@@]12O[C@]1(C)C[C@@H](O)CC2(C)C` [violaxanthin], the cryo-EM structure result at Lhca2 is “significantly higher for Lhca3 and Lhca4 than for Lhca1 and Lhca2”; on Lhca1, “Chl a603–Vio L2 coupling were significantly higher for Lhca3 and Lhca4 than for Lhca1”.
